This is an account of results in US10301263B2, “Anticonvulsant compound” (Royal Holloway and Bedford New College, priority 2014, dated 2019).

One assay addresses T1, AMPA receptor GluA2/3 (Homo sapiens, UniProt P42262+P42263).
T1 construct: expressed in transfected cells; host or cells: Xenopus laevis oocytes injected with cRNA
Kind of assay: Electrophysiology of Xenopus laevis oocytes expressing GluA2/3. The class given is cell-based. The settings on record: for inhibition of AMPA receptors (subunit GluA2/3) compared to decanoic acid: dose curve vs decanoic acid; for reduction of AMPA-R generated current in comparison to decanoic acid / reduction of AMPA-R generated current in comparison to the control / reduction of AMPA-R generated current in comparison to 4-BCCA: GluA2/3, 1 mM; for reduction of AMPA-R generated current in comparison to decanoic acid: P<0.01 for #181, #182, #184, P<0.001 for #176, #185; for reduction of AMPA-R generated current in comparison to the control: P<0.05 for #175, #177, P<0.001 for the others; for reduction of AMPA-R generated current in comparison to 4-BCCA: P<0.05 for #181, #184, P<0.01 for #182, P<0.001 for #176, #185. How it is done:
(§1) The AMPA receptor (flip isoform) cDNAs inserted in a SP6 polymerase expression vector (pSP6T) were a generous gift from Prof Ralf Schoepfer (NPP, UCL). RNA was transcribed in vitro from Mlu I linearized transcripts using the SP6 Promega RiboMax RNA synthesis kit (Madison, Wis.) according to manufacturer's protocols except for the addition of 0.75 mM capping nucleotide m7G(5′)ppp(5′)G (Promega, Madison, Wis.) and 1.6 mM GTP. cRNA concentrations and integrity were estimated by the intensity of fluorescence bands in RNA denaturating gels. AMPA receptor cRNAs were mixed in a nominal 1:1 ratio and approximately 5 ng was injected per oocyte.
Xenopus laevis oocytes were purchased from the European Xenopus Resource Centre, University of Portsmouth. Stage V to VI oocytes were mechanically dissected and then subjected to gentle shaking for approximately 30-50 min at room temperature with modified Barth's solution (in mM): NaCl 88, KCl 1, NaHCO3 2.4, MgCl2 0.82, CaCl2 0.77, Tris-Cl 15, adjusted to pH 7.4 with NaOH (Sigma-Aldrich, UK), supplemented with 50 IU/ml penicillin and 50 μg/ml streptomycin (Invitrogen, UK) and 50 μg/ml tetracycline (Sigma-Aldrich, UK) and 1% collagenase (type 1A). Healthy oocytes were manually defolliculated and the injections of cRNA for homomeric subunits alone (GluA1), or heteromeric mixtures of two subunits together (GluA2/GluA3) were made using an automated Drummond Nanoinject II injector (Broomall, Pa.). The oocytes were then incubated at 17° C. in modified Barth's solution for at least 48 hours before use in electrophysiological recordings.
Experiments were performed at room temperature (approximately 21-23° C.). An oocyte was placed in a recording chamber (0.3-0.5 ml volume) and perfused with ND96 solution (96 mM NaCl, 2 mM KCl, 1.8 mM CaCl2, 1 mM MgCl2, 5 mM HEPES, with pH adjusted to 7.5). Current and voltage electrodes were filled with 300 mM KCl and made from thin-walled borosilicate glass (GC150TF-7.5, Harvard Apparatus, Kent, UK) using a PC-10 electrode puller (Narashige Instruments, Japan) and had resistances of 0.5-2 MΩ. Oocytes were voltage-clamped to a holding potential of −50 mV or −60 mV using a Turbo TEC-03 amplifier (npi electronics, Tamm, Germany). Compounds were dissolved in distilled water or DMSO and dissolved in bathing solution to achieve their final concentrations during experiments, and were applied under gravity flow during the experiment by using a multi-valve perfusion system (VC3-8C, ALA Scientific Instruments, Farmingdale, N.Y.). The bath solutions were perfused at a rate of 10 ml/min. Recordings were filtered at 20 Hz and digitized at 100 Hz (Digidata 1322A, Molecular Devices, Sunnyvale, Calif.) before recording to computer hard disk. Data acquisition was performed using the Windows PC based programme, WinEDR v3.0.6 (John Dempster, University of Strathclyde, UK).
The data from the electrophysiology experiments were analyzed using GraphPad Prism software (GraphPad software, San Diego Calif., USA) and SPSS (IBM United Kingdom Limited). Statistical analysis was performed using ANOVA with Dunnett's or Tukey post hoc test, pair t-test or un-pair t-test. For the behavior experiment, the nonparametric test, Mann-Whitney test were used. Differences were considered as significant at P<0.05. […]

Another assay addresses T2, AMPA receptor GluA1/2 (Homo sapiens, UniProt P42261+P42262).
T2 construct: expressed in transfected cells; host or cells: Xenopus laevis oocytes injected with cRNA
The experiment in a line: Electrophysiology of Xenopus laevis oocytes expressing GluA1/2. The class given is cell-based. The settings on record: IC50 comparison, FIG. 2C. How it is done: as §1
Xenopus laevis oocytes were purchased from the European Xenopus Resource Centre, University of Portsmouth. Stage V to VI oocytes were mechanically dissected and then subjected to gentle shaking for approximately 30-50 min at room temperature with modified Barth's solution (in mM): NaCl 88, KCl 1, NaHCO3 2.4, MgCl2 0.82, CaCl2 0.77, Tris-Cl 15, adjusted to pH 7.4 with NaOH (Sigma-Aldrich, UK), supplemented with 50 IU/ml penicillin and 50 μg/ml streptomycin (Invitrogen, UK) and 50 μg/ml tetracycline (Sigma-Aldrich, UK) and 1% collagenase (type 1A). […]
The data from the electrophysiology experiments were analyzed using GraphPad Prism software (GraphPad software, San Diego Calif., USA) and SPSS (IBM United Kingdom Limited). […]

T1 sequence (P42262 22-883 isoform P42262-2 limits assumed): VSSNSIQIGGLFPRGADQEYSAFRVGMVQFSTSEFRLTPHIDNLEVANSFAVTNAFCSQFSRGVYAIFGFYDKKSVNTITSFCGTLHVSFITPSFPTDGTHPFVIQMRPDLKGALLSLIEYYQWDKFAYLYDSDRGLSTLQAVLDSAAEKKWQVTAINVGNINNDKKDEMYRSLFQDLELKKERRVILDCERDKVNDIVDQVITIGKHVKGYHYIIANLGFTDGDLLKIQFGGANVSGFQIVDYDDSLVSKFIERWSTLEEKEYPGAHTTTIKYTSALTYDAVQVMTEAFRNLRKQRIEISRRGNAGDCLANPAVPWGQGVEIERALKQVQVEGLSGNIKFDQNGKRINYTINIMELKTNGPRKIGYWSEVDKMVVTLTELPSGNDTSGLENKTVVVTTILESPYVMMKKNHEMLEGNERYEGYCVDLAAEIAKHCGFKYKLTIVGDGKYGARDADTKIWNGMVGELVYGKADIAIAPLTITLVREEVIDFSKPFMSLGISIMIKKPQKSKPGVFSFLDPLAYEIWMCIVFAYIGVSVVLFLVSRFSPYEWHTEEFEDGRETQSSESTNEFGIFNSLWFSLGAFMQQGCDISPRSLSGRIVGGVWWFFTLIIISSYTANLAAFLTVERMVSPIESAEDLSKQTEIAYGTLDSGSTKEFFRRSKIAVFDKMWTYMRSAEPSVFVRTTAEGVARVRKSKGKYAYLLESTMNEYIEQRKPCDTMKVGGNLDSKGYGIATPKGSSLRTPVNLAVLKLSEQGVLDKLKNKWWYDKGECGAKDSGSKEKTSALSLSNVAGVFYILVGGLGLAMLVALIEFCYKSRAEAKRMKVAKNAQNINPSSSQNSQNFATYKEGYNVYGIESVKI
T1 sequence (P42263 29-894 isoform P42263-2 limits assumed): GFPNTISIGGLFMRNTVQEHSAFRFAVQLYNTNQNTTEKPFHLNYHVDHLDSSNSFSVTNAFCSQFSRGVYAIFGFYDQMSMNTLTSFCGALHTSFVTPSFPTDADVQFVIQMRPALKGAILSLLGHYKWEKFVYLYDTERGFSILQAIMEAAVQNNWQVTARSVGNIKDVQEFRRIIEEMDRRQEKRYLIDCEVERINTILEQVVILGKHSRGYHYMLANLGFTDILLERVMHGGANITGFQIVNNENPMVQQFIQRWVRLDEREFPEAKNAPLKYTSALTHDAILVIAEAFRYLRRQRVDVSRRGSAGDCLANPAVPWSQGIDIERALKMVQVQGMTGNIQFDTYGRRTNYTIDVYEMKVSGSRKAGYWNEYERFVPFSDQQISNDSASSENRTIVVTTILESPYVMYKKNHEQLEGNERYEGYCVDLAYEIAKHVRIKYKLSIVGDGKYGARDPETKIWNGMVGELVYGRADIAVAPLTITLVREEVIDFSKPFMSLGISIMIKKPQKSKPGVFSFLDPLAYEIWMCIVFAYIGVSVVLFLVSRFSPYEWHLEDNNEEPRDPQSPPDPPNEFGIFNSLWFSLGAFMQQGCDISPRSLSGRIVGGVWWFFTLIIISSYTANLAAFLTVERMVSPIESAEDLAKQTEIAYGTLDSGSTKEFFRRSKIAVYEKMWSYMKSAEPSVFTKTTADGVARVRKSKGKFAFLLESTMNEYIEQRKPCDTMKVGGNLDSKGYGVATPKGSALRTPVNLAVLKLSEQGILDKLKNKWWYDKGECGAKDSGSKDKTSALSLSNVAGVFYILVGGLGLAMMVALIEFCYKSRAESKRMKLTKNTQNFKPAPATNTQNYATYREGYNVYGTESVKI
T2 sequence (P42261 19-906 isoform P42261-2 limits assumed): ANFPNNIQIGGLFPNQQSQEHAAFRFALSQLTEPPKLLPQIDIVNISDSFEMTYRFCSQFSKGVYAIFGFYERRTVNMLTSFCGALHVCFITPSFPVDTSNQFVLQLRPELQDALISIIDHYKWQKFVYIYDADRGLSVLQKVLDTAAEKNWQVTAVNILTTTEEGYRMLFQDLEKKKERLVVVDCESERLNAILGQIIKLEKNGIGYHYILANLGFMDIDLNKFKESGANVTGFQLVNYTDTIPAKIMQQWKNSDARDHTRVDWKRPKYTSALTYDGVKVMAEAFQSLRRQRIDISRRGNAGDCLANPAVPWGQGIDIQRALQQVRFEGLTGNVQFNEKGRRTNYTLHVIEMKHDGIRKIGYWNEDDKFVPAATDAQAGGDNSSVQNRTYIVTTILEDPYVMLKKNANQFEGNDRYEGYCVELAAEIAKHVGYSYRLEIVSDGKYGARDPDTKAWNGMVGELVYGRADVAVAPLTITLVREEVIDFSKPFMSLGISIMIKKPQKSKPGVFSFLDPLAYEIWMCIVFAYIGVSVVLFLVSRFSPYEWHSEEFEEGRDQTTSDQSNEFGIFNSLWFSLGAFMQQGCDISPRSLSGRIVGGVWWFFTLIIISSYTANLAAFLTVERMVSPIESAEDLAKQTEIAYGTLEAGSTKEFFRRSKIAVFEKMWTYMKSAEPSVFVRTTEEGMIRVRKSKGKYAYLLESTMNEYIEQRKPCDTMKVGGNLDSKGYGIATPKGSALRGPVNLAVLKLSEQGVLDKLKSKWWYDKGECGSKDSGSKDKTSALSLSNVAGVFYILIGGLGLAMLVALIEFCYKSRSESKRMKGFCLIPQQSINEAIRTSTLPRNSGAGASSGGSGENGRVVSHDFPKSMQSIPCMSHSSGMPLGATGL
T2 sequence (P42262 22-883 isoform P42262-2 limits assumed): as the sequence (P42262 22-883 isoform P42262-2 limits assumed) above

As to `CCCCCC1CCC(CC(=O)O)CC1` (racemic) [Compound 4-PCEA, 2-(4-pentylcyclohexyl)ethanoic acid], the “inhibition of AMPA receptors (subunit GluA2/3) compared to decanoic acid” value on AMPA receptor GluA2/3 is reported as “more potent inhibition”. For the same compound, the “inhibitory effect on AMPA receptors consisting of GluA1/2 subunits compared to decanoic acid” value against AMPA receptor GluA1/2 was “enhanced inhibitory effect”. For the compound `CC(C)CCC1CCC(C(=O)O)CC1` (stereo not shown) [compound 181, 4-(3-methylbutyl)cyclohexanecarboxylic acid], at AMPA receptor GluA2/3, the “reduction of AMPA-R generated current in comparison to decanoic acid” value (“reduction … to decanoic acid” for short) is “significant reduction”, the “reduction of AMPA-R generated current in comparison to the control” value (shortened to “reduction … to the control”) is recorded as “significant reduction” and the “reduction of AMPA-R generated current in comparison to 4-BCCA” value (“reduction … to 4-BCCA” below) is recorded as “significant reduction”.

For the compound `CCCCC1CCC(C(=O)O)NC1` (stereo not shown) [compound 178, 5-butylpiperidine-2-carboxylic acid], the “reduction … to the control” value at AMPA receptor GluA2/3 is “significant reduction”. As for `CCC(C)CCC1CCC(CC(=O)O)CC1` (stereo not shown) [compound 176, [4-(3-methylpentyl)cyclohexyl]acetic acid], on AMPA receptor GluA2/3, the “reduction … to decanoic acid” value is reported as “significant reduction”, the “reduction … to the control” value is “significant reduction” and the “reduction … to 4-BCCA” value is given as “significant reduction”. For the compound `CCOCC1CCC(C(=O)O)CC1` (stereo not shown) [compound 177, 4-(ethoxymethyl)cyclohexancarboxylic acid], the “reduction … to the control” value on AMPA receptor GluA2/3 was “significant reduction”. Consider `CC(C)CCCC1CCC(CC(=O)O)CC1` (stereo not shown) [compound 172, [4-(4-methylpentyl)cyclohexyl]acetic acid], for which the “reduction … to the control” value at AMPA receptor GluA2/3 is “significant reduction”. On the same count and under the same terms, with `CCNCC1CCC(CC(=O)O)CC1` (stereo not shown) [compound 179, {4-[(ethylamino)methyl]cyclohexyl}acetic acid] the entry was “significant reduction”.

As for `CC/C=C/C1CCC(C(=O)O)CC1` (stereo not shown) [compound 174, 4-[(1E)-but-1-en-1-yl]cyclohexanecarboxylic acid], the “reduction … to the control” value on AMPA receptor GluA2/3 is “significant reduction”. Consider `CCCCC=C1CCC(CC(=O)O)CC1` (stereo not shown) [compound 182, (4-pentylidenecyclohexyl)acetic acid], for which, on AMPA receptor GluA2/3, the “reduction … to decanoic acid” value was “significant reduction”, the “reduction … to the control” value is given as “significant reduction” and the “reduction … to 4-BCCA” value is on record as “significant reduction”. Turning to `CCC(C)CC1CCC(C(=O)O)CC1` (stereo not shown) [compound 184, 4-(2-methylbutyl)cyclohexanecarboxylic acid], at AMPA receptor GluA2/3, the “reduction … to decanoic acid” value is given as “significant reduction”, the “reduction … to the control” value is “significant reduction” and the “reduction … to 4-BCCA” value is on record as “significant reduction”. As for `CCCOC1CCC(C(=O)O)CC1` (stereo not shown) [compound 180, 4-propoxycyclohexanecarboxylic acid], the “reduction … to the control” value at AMPA receptor GluA2/3 was “significant reduction”.

In the case of `CCCC(C)CC1CCC(CC(=O)O)CC1` (stereo not shown) [compound 185, [4-(2-methylpentyl)cyclohexyl]acetic acid], at AMPA receptor GluA2/3, the “reduction … to decanoic acid” value is given as “significant reduction”, the “reduction … to the control” value is on record as “significant reduction” and the “reduction … to 4-BCCA” value is “significant reduction”. On to `CCCOCC1CCC(CC(=O)O)CC1` (stereo not shown) [compound 175, 4-(propoxymethyl)cyclohexyl acetic acid], for which, on AMPA receptor GluA2/3, the “reduction … to the control” value is given as “significant reduction”. In the case of `CCCCCc1ccc(CC(=O)O)cc1` [Compound 4-PPEA, 4-pentylphenylethanoic acid], the “inhibition of AMPA receptors (subunit GluA2/3) compared to decanoic acid” value at AMPA receptor GluA2/3 is “more potent inhibition”.
